The source made the active and inactive calls. The rule behind the calls is not given here.
Columns and labels:
HCC1937 [1] = assay: Antiproliferative activity against human HCC1937 cells assessed as cell growth inhibition
MCF7 [2] = assay: Inhibition of colony formation in human MCF7 cells at 4 uM incubated for 10 days in presence of 1:1 of compound:Olaparib by crystal violet staining based assay; type: functional, cell-based; conditions: time 10.0 day
MCF7 [3] = assay: Induction of cell cycle arrest at S phase in human MCF7 cells at 4 uM by Annexin-V-FLUOS staining based flow cytometry; type: functional
MCF7 [4] = assay: Induction of cell cycle arrest at G2/M phase in human MCF7 cells at 4 uM by Annexin-V-FLUOS staining based flow cytometry; type: functional
MDA-MB-231 [5] = assay: Induction of cell cycle arrest at G2/M phase in human MDA-MB-231 cells at 4 uM in presence of 1:1 of compound:Olaparib by Annexin-V-FLUOS staining based flow cytometry; type: functional
MDA-MB-231 [6] = assay: Antiproliferation activity against human MDA-MB-231 cells assessed as decrease in Ki67 expression at 4 uM incubated for 48 hrs in presence of 1:1 of compound:Olaparib by immunofluorescence analysis; type: functional, cell-based
MCF7 [7] = assay: Induction of apoptosis in human MCF7 cells assessed as increase in Bax level at 4 uM incubated for 2 days in presence of 1:1 of compound:Olaparib by immunoblot analysis; type: functional, cell-based; conditions: time 2.0 day
MDA-MB-231 [8] = assay: Antimigratory activity against human MDA-MB-231 cells at 4 uM incubated for 1 hr in presence of 1:1 of compound:Olaparib by wound healing assay; type: functional, cell-based
MDA-MB-231 [9] = assay: Antimigratory activity in human MDA-MB-231 cells assessed as upregulation of E-cadherin level at 4 uM by DAPI staining based immunofluorescence analysis; type: functional, cell-based
MCF7 [10] = assay: Antimigratory activity in human MCF7 cells assessed as upregulation of E-cadherin level at 4 uM in presence of 1:1 of compound:Olaparib by DAPI staining based immunofluorescence analysis; type: functional, cell-based
MDA-MB-231 [11] = assay: Antimigratory activity in human MDA-MB-231 cells assessed as downregulation of MMP-2 level at 4 uM by DAPI staining based immunofluorescence analysis; type: functional, cell-based
MDA-MB-231 [12] = assay: Antimigratory activity in human MDA-MB-231 cells assessed as downregulation of MMP-2 level at 4 uM in presence of 1:1 of compound:Olaparib by DAPI staining based immunofluorescence analysis; type: functional, cell-based
MDA-MB-231 [13] = assay: Antimigratory activity in human MDA-MB-231 cells assessed as upregulation of E-cadherin level at 4 uM incubated for 2 days in presence of 1:1 of compound:Olaparib by immunoblot analysis; type: functional, cell-based; conditions: time 2.0 day
MCF7 [14] = assay: Antimigratory activity in human MCF7 cells assessed as upregulation of E-cadherin level at 4 uM incubated for 2 days in presence of 1:1 of compound:Olaparib by immunoblot analysis; type: functional, cell-based; conditions: time 2.0 day
MDA-MB-231 [15] = assay: Downregulation of Olaparib-induced PAR expression in human MDA-MB-231 cells at 4 uM incubated for 2 days by Western blot analysis; type: functional, cell-based; conditions: time 2.0 day
MDA-MB-231 [16] = assay: Induction of hypoxia in human MDA-MB-231 cells assessed as upregulation of HIF-1alpha level at 4 uM incubated for 2 days in presence 1:1 of Olaparib by Western blot analysis; type: functional, cell-based; conditions: time 2.0 day
MDA-MB-231 [17] = assay: Induction of DNA damage in human MDA-MB-231 cells assessed as increase in comet tail length at 4 uM in presence 1:1 of Olaparib by alkaline comet assay; type: functional, cell-based
MDA-MB-231 [18] = assay: Induction of DNA damage in human MDA-MB-231 cells assessed as increase in gamma-H2AX level at 4 uM incubated for 48 hrs by DAPI staining based immunofluorescence analysis; type: functional, cell-based
MDA-MB-231 [19] = assay: Induction of DNA damage in human MDA-MB-231 cells assessed as increase in gamma-H2AX level at 4 uM incubated for 48 hrs in presence of 1:1 of compound:Olaparib by DAPI staining based immunofluorescence analysis; type: functional, cell-based
MCF7 [20] = assay: Induction of DNA damage in human MCF7 cells assessed as increase in gamma-H2AX level at 4 uM incubated for 48 hrs by DAPI staining based immunofluorescence analysis; type: functional, cell-based
MCF7 [21] = assay: Induction of DNA damage in human MCF7 cells assessed as increase in gamma-H2AX level at 4 uM incubated for 48 hrs in presence of 1:1 of compound:Olaparib by DAPI staining based immunofluorescence analysis; type: functional, cell-based
MCF7 [22] = assay: Induction of HR DNA repair in human MCF7 cells assessed as decrease in RAD51 level at 4 uM incubated for 48 hrs by DAPI staining based immunofluorescence analysis; type: functional, cell-based
MCF7 [23] = assay: Induction of HR DNA repair in human MCF7 cells assessed as decrease in RAD51 level at 4 uM incubated for 48 hrs in presence of 1:1 of compound:Olaparib by DAPI staining based immunofluorescence analysis; type: functional, cell-based
MDA-MB-231 [24] = assay: Antiproliferation activity against human MDA-MB-231 cells xenografted in BALB/c nude mouse assessed as decrease in Ki67 expression at 50 mg/kg, po for 14 days in presence of 1:1 of compound:Olaparib by H and E staining based IHC analysis; type: functional, organism-based; conditions: time 14.0 day
[25] = biological target: Vascular endothelial growth factor receptor 1 (Homo sapiens, UniProt P17948); assay: Inhibition of VEGFR1 phosphorylation at tyr1333 residue in human MDA-MB-231 cells xenografted in BALB/c nude mouse at 50 mg/kg, po for 14 days in presence of 1:1 of compound:Olaparib by H and E staining based IHC analysis; type: organism-based; conditions: time 14.0 day
[26] = biological target: Poly [ADP-ribose] polymerase 1 (Homo sapiens, UniProt P09874); assay: Inhibition of PARP1 in human MDA-MB-231 cells xenografted in BALB/c nude mouse at 50 mg/kg, po for 14 days in presence of 1:1 of compound:Olaparib by H and E staining based IHC analysis; type: organism-based; conditions: time 14.0 day
MDA-MB-231 [27] = assay: Induction of DNA damage in human MDA-MB-231 cells xenografted in BALB/c nude mouse assessed as increase in gamma-H2AX level at 50 mg/kg, po for 14 days in presence of 1:1 of compound:Olaparib by H and E staining based IHC analysis; type: functional, organism-based; conditions: time 14.0 day
MDA-MB-231 [28] = assay: Induction of HR DNA repair in human MDA-MB-231 cells xenografted in BALB/c nude mouse assessed as decrease in FOXM1 level at 50 mg/kg, po for 14 days in presence of 1:1 of compound:Olaparib by H and E staining based IHC analysis; type: functional, organism-based; conditions: time 14.0 day
MDA-MB-231 [29] = assay: Induction of HR DNA repair in human MDA-MB-231 cells xenografted in BALB/c nude mouse assessed as decrease in RAD51 level at 50 mg/kg, po for 14 days in presence of 1:1 of compound:Olaparib by H and E staining based IHC analysis; type: functional, organism-based; conditions: time 14.0 day
MDA-MB-231 [30] = assay: Antimetastatic activity against human MDA-MB-231 cells xenografted in lungs of BALB/c nude mouse assessed as decrease in lung metastatic nodules at 50 mg/kg administered once a day measured after 14 days in presence of 1:1 of compound:Olaparib by H and E staining based analysis; type: functional, organism-based; conditions: time 14.0 day
HCC1937 [31] = assay: cells; conditions: Homo sapiens
MDA-MB-436 = assay: cells; conditions: Homo sapiens

Sequence of Vascular endothelial growth factor receptor 1 (P17948 whole entry): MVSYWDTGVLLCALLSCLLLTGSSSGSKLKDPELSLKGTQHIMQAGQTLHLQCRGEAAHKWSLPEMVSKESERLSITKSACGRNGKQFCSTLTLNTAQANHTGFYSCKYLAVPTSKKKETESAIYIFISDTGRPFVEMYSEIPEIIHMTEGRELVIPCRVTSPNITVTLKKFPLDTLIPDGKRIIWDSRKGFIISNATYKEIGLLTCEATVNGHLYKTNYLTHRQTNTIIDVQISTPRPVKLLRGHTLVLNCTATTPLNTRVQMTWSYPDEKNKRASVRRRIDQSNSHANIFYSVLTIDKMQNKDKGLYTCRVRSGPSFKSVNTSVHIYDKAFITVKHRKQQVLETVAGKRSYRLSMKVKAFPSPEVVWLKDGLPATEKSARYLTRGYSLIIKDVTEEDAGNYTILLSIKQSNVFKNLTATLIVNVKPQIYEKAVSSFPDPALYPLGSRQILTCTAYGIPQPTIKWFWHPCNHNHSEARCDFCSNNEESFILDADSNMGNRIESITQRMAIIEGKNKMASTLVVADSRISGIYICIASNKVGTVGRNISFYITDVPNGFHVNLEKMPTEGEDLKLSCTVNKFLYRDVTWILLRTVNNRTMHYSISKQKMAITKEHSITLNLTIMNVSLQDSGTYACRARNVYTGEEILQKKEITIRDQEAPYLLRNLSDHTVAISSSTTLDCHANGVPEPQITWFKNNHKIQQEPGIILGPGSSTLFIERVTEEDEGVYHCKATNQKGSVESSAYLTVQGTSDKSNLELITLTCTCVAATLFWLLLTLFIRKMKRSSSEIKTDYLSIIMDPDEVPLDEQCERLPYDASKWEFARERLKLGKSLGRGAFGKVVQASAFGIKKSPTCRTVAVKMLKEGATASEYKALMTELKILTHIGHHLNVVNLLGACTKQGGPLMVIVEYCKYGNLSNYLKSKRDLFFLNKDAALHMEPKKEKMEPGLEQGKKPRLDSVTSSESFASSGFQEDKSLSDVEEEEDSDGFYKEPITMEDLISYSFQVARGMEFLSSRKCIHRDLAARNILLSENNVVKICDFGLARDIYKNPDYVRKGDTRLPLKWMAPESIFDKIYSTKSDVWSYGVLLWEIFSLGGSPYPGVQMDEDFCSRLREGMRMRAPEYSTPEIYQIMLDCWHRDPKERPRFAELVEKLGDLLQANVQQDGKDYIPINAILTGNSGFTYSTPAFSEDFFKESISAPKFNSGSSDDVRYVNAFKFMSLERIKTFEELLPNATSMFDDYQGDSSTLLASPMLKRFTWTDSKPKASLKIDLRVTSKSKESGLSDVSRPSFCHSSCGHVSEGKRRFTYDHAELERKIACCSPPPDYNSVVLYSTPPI
Sequence of Poly [ADP-ribose] polymerase 1 (P09874 whole entry): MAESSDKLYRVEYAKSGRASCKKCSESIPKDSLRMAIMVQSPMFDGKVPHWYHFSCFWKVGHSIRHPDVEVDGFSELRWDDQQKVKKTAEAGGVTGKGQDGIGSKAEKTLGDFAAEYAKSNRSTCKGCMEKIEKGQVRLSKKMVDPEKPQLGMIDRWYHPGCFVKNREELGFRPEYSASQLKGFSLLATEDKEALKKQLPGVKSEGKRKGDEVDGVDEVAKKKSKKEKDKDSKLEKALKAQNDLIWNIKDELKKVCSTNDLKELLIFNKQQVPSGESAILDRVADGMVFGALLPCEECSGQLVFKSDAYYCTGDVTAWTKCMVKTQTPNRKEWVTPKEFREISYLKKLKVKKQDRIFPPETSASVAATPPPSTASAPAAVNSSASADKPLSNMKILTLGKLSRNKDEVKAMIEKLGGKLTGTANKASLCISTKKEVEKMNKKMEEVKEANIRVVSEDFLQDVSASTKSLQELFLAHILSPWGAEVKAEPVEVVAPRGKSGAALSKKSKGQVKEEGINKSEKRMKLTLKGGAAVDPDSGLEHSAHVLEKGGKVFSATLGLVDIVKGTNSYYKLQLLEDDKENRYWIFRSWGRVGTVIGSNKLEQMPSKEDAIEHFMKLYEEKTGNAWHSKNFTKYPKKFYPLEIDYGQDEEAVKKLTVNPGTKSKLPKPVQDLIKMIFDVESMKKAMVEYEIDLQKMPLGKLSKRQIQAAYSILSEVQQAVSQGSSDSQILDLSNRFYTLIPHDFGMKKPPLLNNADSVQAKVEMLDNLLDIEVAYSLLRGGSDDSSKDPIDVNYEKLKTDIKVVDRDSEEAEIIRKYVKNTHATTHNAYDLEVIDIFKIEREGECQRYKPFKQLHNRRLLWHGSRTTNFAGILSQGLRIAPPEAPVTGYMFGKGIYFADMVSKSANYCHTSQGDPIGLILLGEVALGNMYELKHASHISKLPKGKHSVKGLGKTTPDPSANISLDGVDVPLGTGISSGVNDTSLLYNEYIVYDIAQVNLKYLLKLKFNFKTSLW

With `Cc1ccc(Nc2nccc(N(C)c3ccc4c(C)n(C)nc4c3)n2)cc1S(N)(=O)=O` [PAZOPANIB] the IC50 (HCC1937 [1]) was > 10 µM, the inhibition (MCF7 [2]) was “Active” and the Activity (MCF7 [3]) was “Active”. For the same compound, the Activity (MCF7 [4]) was “Active”, the Activity (MDA-MB-231 [5]) was “Active” and the Activity (MDA-MB-231 [6]) was “Active”. For the same compound, the Activity (MCF7 [7]) was “Active”, the Activity (MDA-MB-231 [8]) was “Active” and the Activity (MDA-MB-231 [9]) was “Active”. For the same compound, the Activity (MCF7 [10]) was “Active”, the Activity (MDA-MB-231 [11]) was “Active” and the Activity (MDA-MB-231 [12]) was “Active”. The Activity (MDA-MB-231 [13]) was “Active”, the Activity (MCF7 [14]) was “Active” and the Activity (MDA-MB-231 [15]) was “inactive”. For the same compound, the Activity (MDA-MB-231 [16]) was “Active”, the Activity (MDA-MB-231 [17]) was “Active” and the Activity (MDA-MB-231 [18]) was “Active”. The Activity (MDA-MB-231 [19]) was “Active”, the Activity (MCF7 [20]) was “Active” and the Activity (MCF7 [21]) was “Active”. The Activity (MCF7 [22]) was “Active”, the Activity (MCF7 [23]) was “Active” and the Activity (MDA-MB-231 [24]) was “Active”. The inhibition [25] was “Active”, the inhibition [26] was “Active” and the Activity (MDA-MB-231 [27]) was “Active”. The Activity (MDA-MB-231 [28]) was “Active”, the Activity (MDA-MB-231 [29]) was “Active” and the Activity (MDA-MB-231 [30]) was “Active”. For the same compound, the IC50 (HCC1937 [31]) was > 10 µM and the IC50 (MDA-MB-436) was > 10 µM.

Source: ChEMBL document CHEMBL5321287, “Discovery, Synthesis, and Evaluation of Novel Dual Inhibitors of a Vascular Endothelial Growth Factor Receptor and Poly(ADP-Ribose) Polymerase for BRCA Wild-Type Breast Cancer Therapy” (J Med Chem, 2023)
